Test results reported in ChEMBL document CHEMBL2040728, “New substituted 4H-chromenes as anticancer agents” (Bioorg Med Chem Lett, 2012).

How the values were obtained:
T98G = experiment: Antiproliferative activity against human T98G cells after 5 days by MTT assay; type: functional, cell-based; settings: 120 h
[1] = Antiproliferative activity against human U87 cells after 5 days by MTT assay; type: functional, cell-based, U-87MG ATCC; settings: U-87 MG, 120 h
[2] = Antiproliferative activity against human LN18 cells after 5 days by MTT assay; type: functional, cell-based; settings: LN-18, 120 h
[3] = Antiproliferative activity against human A172 cells after 5 days by MTT assay; type: functional, cell-based; settings: A 172, 120 h
[4] = Cytotoxicity against mouse primary astrocytes after 5 days by MTT assay; type: cell-based; settings: Astrocyte, 120 h
LNCaP = experiment: Antiproliferative activity against human LNCAP cells after 96 hrs by SRB assay; type: functional, cell-based
[5] = Antiproliferative activity against human paclitaxel-resistant PC3-TxR cells after 96 hrs by SRB assay; type: functional, cell-based
PC-3 [6] = experiment: Antiproliferative activity against human PC3 cells after 96 hrs by SRB assay; type: functional, cell-based; settings: PC-3, 96 h
[7] = Antiproliferative activity against human WM164 cells after 48 hrs by SRB assay; type: functional, cell-based; settings: WM164, 48 h
A-375 = experiment: Antiproliferative activity against human A375 cells after 48 hrs by SRB assay; type: functional, cell-based; settings: A-375, 48 h
CCRF-CEM = experiment: Cytotoxicity against human CCRF-CEM cells assessed as growth at 10 uM; type: functional; settings: read-out: Activity
K562 = experiment: Cytotoxicity against human K562 cells assessed as growth at 10 uM; type: functional; settings: read-out: Activity
HL-60(TB) = experiment: Cytotoxicity against human HL-60(TB) cells assessed as growth at 10 uM; type: functional; settings: read-out: Activity
MOLT-4 = experiment: Cytotoxicity against human MOLT4 cells assessed as growth at 10 uM; type: functional; settings: read-out: Activity
RPMI-8226 = experiment: Cytotoxicity against human RPMI8226 cells assessed as growth at 10 uM; type: functional; settings: read-out: Activity
A549 = experiment: Cytotoxicity against human A549 cells assessed as growth at 10 uM; type: functional; settings: read-out: Activity
EKVX = experiment: Cytotoxicity against human EKVX cells assessed as growth at 10 uM; type: functional; settings: read-out: Activity
HOP-62 = experiment: Cytotoxicity against human HOP62 cells assessed as growth at 10 uM; type: functional; settings: read-out: Activity
HOP-92 = experiment: Cytotoxicity against human HOP92 cells assessed as growth at 10 uM; type: functional; settings: read-out: Activity
NCI-H226 = experiment: Cytotoxicity against human NCI-H226 cells assessed as growth at 10 uM; type: functional; settings: read-out: Activity
NCI-H23 = experiment: Cytotoxicity against human NCI-H23 cells assessed as growth at 10 uM; type: functional; settings: read-out: Activity
NCI-H322M = experiment: Cytotoxicity against human NCI-H322M cells assessed as growth at 10 uM; type: functional; settings: read-out: Activity
NCI-H460 = experiment: Cytotoxicity against human NCI-H460 cells assessed as growth at 10 uM; type: functional; settings: read-out: Activity
NCI-H522 = experiment: Cytotoxicity against human NCI-H522 cells assessed as growth at 10 uM; type: functional; settings: read-out: Activity
COLO 205 = experiment: Cytotoxicity against human COLO205 cells assessed as growth at 10 uM; type: functional; settings: read-out: Activity
HCC 2998 = experiment: Cytotoxicity against human HCC2998 cells assessed as growth at 10 uM; type: functional; settings: read-out: Activity
HCT-116 = experiment: Cytotoxicity against human HCT116 cells assessed as growth at 10 uM; type: functional; settings: read-out: Activity
HCT-15 = experiment: Cytotoxicity against human HCT15 cells assessed as growth at 10 uM; type: functional; settings: read-out: Activity
HT-29 = experiment: Cytotoxicity against human HT-29 cells assessed as growth at 10 uM; type: functional; settings: read-out: Activity
KM12 = experiment: Cytotoxicity against human KM12 cells assessed as growth at 10 uM; type: functional; settings: read-out: Activity
SW-620 = experiment: Cytotoxicity against human SW620 cells assessed as growth at 10 uM; type: functional; settings: read-out: Activity
SF-268 = experiment: Cytotoxicity against human SF268 cells assessed as growth at 10 uM; type: functional; settings: read-out: Activity
SF-295 = experiment: Cytotoxicity against human SF295 cells assessed as growth at 10 uM; type: functional; settings: read-out: Activity
SF-539 = experiment: Cytotoxicity against human SF539 cells assessed as growth at 10 uM; type: functional; settings: read-out: Activity
SNB-19 = experiment: Cytotoxicity against human SNB19 cells assessed as growth at 10 uM; type: functional; settings: read-out: Activity
SNB-75 = experiment: Cytotoxicity against human SNB75 cells assessed as growth at 10 uM; type: functional; settings: read-out: Activity
U-251 = experiment: Cytotoxicity against human U251 cells assessed as growth at 10 uM; type: functional; settings: read-out: Activity
LOX IMVI = experiment: Cytotoxicity against human LOXIMVI cells assessed as growth at 10 uM; type: functional; settings: read-out: Activity
Malme-3M = experiment: Cytotoxicity against human MALME-3M cells assessed as growth at 10 uM; type: functional; settings: read-out: Activity
M14 = experiment: Cytotoxicity against human M14 cells assessed as growth at 10 uM; type: functional; settings: read-out: Activity
MDA-MB-435 = experiment: Cytotoxicity against human MDA-MB-435 cells assessed as growth at 10 uM; type: functional; settings: read-out: Activity
SK-MEL-2 = experiment: Cytotoxicity against human SK-MEL-2 cells assessed as growth at 10 uM; type: functional; settings: read-out: Activity
SK-MEL-28 = experiment: Cytotoxicity against human SK-MEL-28 cells assessed as growth at 10 uM; type: functional; settings: read-out: Activity
SK-MEL-5 = experiment: Cytotoxicity against human SK-MEL-5 cells assessed as growth at 10 uM; type: functional; settings: read-out: Activity
UACC-257 = experiment: Cytotoxicity against human UACC257 cells assessed as growth at 10 uM; type: functional; settings: read-out: Activity
UACC-62 = experiment: Cytotoxicity against human UACC62 cells assessed as growth at 10 uM; type: functional; settings: read-out: Activity
IGROV-1 = experiment: Cytotoxicity against human IGROV1 cells assessed as growth at 10 uM; type: functional; settings: read-out: Activity
OVCAR-3 = experiment: Cytotoxicity against human OVCAR3 cells assessed as growth at 10 uM; type: functional; settings: read-out: Activity
OVCAR-4 = experiment: Cytotoxicity against human OVCAR4 cells assessed as growth at 10 uM; type: functional; settings: read-out: Activity
OVCAR-5 = experiment: Cytotoxicity against human OVCAR5 cells assessed as growth at 10 uM; type: functional; settings: read-out: Activity
OVCAR-8 = experiment: Cytotoxicity against human OVCAR8 cells assessed as growth at 10 uM; type: functional; settings: read-out: Activity
NCI/ADR-RES = experiment: Cytotoxicity against human NCI/ADR-RES cells assessed as growth at 10 uM; type: functional; settings: read-out: Activity
SK-OV-3 = experiment: Cytotoxicity against human SKOV3 cells assessed as growth at 10 uM; type: functional; settings: read-out: Activity
786-0 = experiment: Cytotoxicity against human 786-0 cells assessed as growth at 10 uM; type: functional; settings: read-out: Activity
ACHN = experiment: Cytotoxicity against human ACHN cells assessed as growth at 10 uM; type: functional; settings: read-out: Activity
CAKI-1 = experiment: Cytotoxicity against human Caki1 cells assessed as growth at 10 uM; type: functional; settings: read-out: Activity
RXF 393 = experiment: Cytotoxicity against human RXF393 cells assessed as growth at 10 uM; type: functional; settings: read-out: Activity
SN12C = experiment: Cytotoxicity against human SN12C cells assessed as growth at 10 uM; type: functional; settings: read-out: Activity
TK-10 = experiment: Cytotoxicity against human TK10 cells assessed as growth at 10 uM; type: functional; settings: read-out: Activity
UO-31 = experiment: Cytotoxicity against human UO31 cells assessed as growth at 10 uM; type: functional; settings: read-out: Activity
PC-3 [8] = experiment: Cytotoxicity against human PC3 cells assessed as growth at 10 uM; type: functional; settings: read-out: Activity
DU-145 = experiment: Cytotoxicity against human DU145 cells assessed as growth at 10 uM; type: functional; settings: read-out: Activity
MCF7 = experiment: Cytotoxicity against human MCF7 cells assessed as growth at 10 uM; type: functional; settings: read-out: Activity
MDA-MB-231 = experiment: Cytotoxicity against human MDA-MB-231 cells assessed as growth at 10 uM; type: functional; settings: read-out: Activity
[9] = Cytotoxicity against human Hs 578T cells assessed as growth at 10 uM; type: functional; settings: read-out: Activity
BT-549 = experiment: Cytotoxicity against human BT549 cells assessed as growth at 10 uM; type: functional; settings: read-out: Activity
T47D = experiment: Cytotoxicity against human T47D cells assessed as growth at 10 uM; type: functional; settings: read-out: Activity
MDA-MB-468 = experiment: Cytotoxicity against human MDA-MB-468 cells assessed as growth at 10 uM; type: functional; settings: read-out: Activity
Bos taurus [10] = organism: Bos taurus; experiment: Inhibition of bovine brain tubulin polymerization after 20 mins by spectrophotometric analysis
Bos taurus [11] = organism: Bos taurus; experiment: Inhibition of bovine brain tubulin polymerization at 10 uM after 20 mins by spectrophotometric analysis
Bos taurus [12] = organism: Bos taurus; experiment: Inhibition of bovine brain tubulin polymerization at 20 uM after 20 mins by spectrophotometric analysis

## Cn1nnc2c(C(N)=O)ncn2c1=O [TEMOZOLOMIDE]
T98G
  IC50: 570 µM
[1]
  IC50: 49 µM
[2]
  IC50: 390 µM
[3]
  IC50: 65 µM
[4]
  IC50: > 1000 µM

## CN(C)c1ccc2c(c1)OC(N)=C(C#N)C2c1cccc2c(F)cccc12 (configuration not stated)
LNCaP
  IC50: 0.25 µM
[5]
  IC50: 0.19 µM
PC-3 [6]
  IC50: 0.42 µM
[7]
  IC50: 0.22 µM
A-375
  IC50: 0.13 µM
[1]
  IC50: 0.0629 µM
[2]
  IC50: 0.0804 µM
[3]
  IC50: 0.0207 µM
[4]
  IC50: 9.45 µM
CCRF-CEM
  growth at 10 µM: 11.3%
K562
  growth at 10 µM: 6.85%
HL-60(TB)
  growth at 10 µM: -18.4%
MOLT-4
  growth at 10 µM: 13.9%
RPMI-8226
  growth at 10 µM: 20.5%
A549
  growth at 10 µM: 11.5%
EKVX
  growth at 10 µM: 36.7%
HOP-62
  growth at 10 µM: 39.8%
HOP-92
  growth at 10 µM: -2.42%
NCI-H226
  growth at 10 µM: 0%
NCI-H23
  growth at 10 µM: -0.47%
NCI-H322M
  growth at 10 µM: 45.4%
NCI-H460
  growth at 10 µM: 1.28%
NCI-H522
  growth at 10 µM: -17.5%
COLO 205
  growth at 10 µM: -38.1%
HCC 2998
  growth at 10 µM: 7.74%
HCT-116
  growth at 10 µM: -5.99%
HCT-15
  growth at 10 µM: 6.89%
HT-29
  growth at 10 µM: -3.8%
KM12
  growth at 10 µM: -0.79%
SW-620
  growth at 10 µM: 23.5%
SF-268
  growth at 10 µM: 24.8%
SF-295
  growth at 10 µM: 8.13%
SF-539
  growth at 10 µM: -7.29%
SNB-19
  growth at 10 µM: 39%
SNB-75
  growth at 10 µM: 22.3%
U-251
  growth at 10 µM: 6.44%
LOX IMVI
  growth at 10 µM: 5.96%
Malme-3M
  growth at 10 µM: 49.6%
M14
  growth at 10 µM: -1.53%
MDA-MB-435
  growth at 10 µM: -32.4%
SK-MEL-2
  growth at 10 µM: 27.9%
SK-MEL-28
  growth at 10 µM: 54.1%
SK-MEL-5
  growth at 10 µM: 13.7%
UACC-257
  growth at 10 µM: 51.5%
UACC-62
  growth at 10 µM: 38.9%
IGROV-1
  growth at 10 µM: 32.3%
OVCAR-3
  growth at 10 µM: -35.4%
OVCAR-4
  growth at 10 µM: 27.3%
OVCAR-5
  growth at 10 µM: 27.6%
OVCAR-8
  growth at 10 µM: -23.4%
NCI/ADR-RES
  growth at 10 µM: -6.17%
SK-OV-3
  growth at 10 µM: 5.75%
786-0
  growth at 10 µM: 16.8%
ACHN
  growth at 10 µM: 27.6%
CAKI-1
  growth at 10 µM: 22.9%
RXF 393
  growth at 10 µM: 7.11%
SN12C
  growth at 10 µM: 16.4%
TK-10
  growth at 10 µM: 45.8%
UO-31
  growth at 10 µM: 49.4%
PC-3 [8]
  growth at 10 µM: 14.4%
DU-145
  growth at 10 µM: -16.5%
MCF7
  growth at 10 µM: 13.3%
MDA-MB-231
  growth at 10 µM: 31.9%
[9]
  growth at 10 µM: 19.2%
BT-549
  growth at 10 µM: -12.8%
T47D
  growth at 10 µM: 61.8%
MDA-MB-468
  growth at 10 µM: 27.6%

## COc1cc2c(c(OC)c1OC)-c1ccc(OC)c(=O)cc1[C@@H](NC(C)=O)CC2 [COLCHICINE]
[5]
  IC50: 0.02 µM
[7]
  IC50: 0.03 µM

## CN(C)c1ccc2c(c1)OC(N)=C(C#N)C2c1ccc(N(C)C)c2ccccc12 (configuration not stated)
LNCaP
  IC50: 0.14 µM
[5]
  IC50: 0.23 µM
PC-3 [6]
  IC50: 0.22 µM
[7]
  IC50: 0.16 µM
A-375
  IC50: 0.08 µM
T98G
  IC50: 0.0125 µM
[1]
  IC50: 0.0206 µM
[2]
  IC50: 0.0133 µM
[3]
  IC50: 0.0074 µM
[4]
  IC50: 2.03 µM
Bos taurus [10]
  inhibition: Dose-dependent effect
Bos taurus [11]
  inhibition: 29%
Bos taurus [12]
  inhibition: 68%
